Publication PMC4882497 (British Journal of Pharmacology, 2016)

What was measured:
male WT mice = assay: Motor activity over 24 h in a novel cage; assay type: in vivo, mouse; settings: 1 mg/kg i.p., 24 h in novel cage, vs saline, n = 8 vs 7
Protocol: Male WT mice were injected i.p. with either the long‐acting Y4 receptor agonist [K^30(PEG2)]hPP2‐36 (1mg kg^−1) or saline. Activity measurements were performed for 24 h in a novel cage. Mice were single‐housed in standard cages with food and water ad libitum. Movements of the mice were detected by an infrared sensor throughout light and dark phase (TSE LabMaster InfraMot, Bad Homburg, Germany).
To exclude non‐specific effects of [K^30(PEG2)]hPP2‐36 on motor activity that may compromise freezing detection during extinction training, we first injected male WT mice i.p. with [K^30(PEG2)]hPP2‐36 or saline and subsequently observed the activity of the mice for 24 h in a novel cage (Supporting Information Figure S4).

WT (C57Bl/6NCrl) mice = assay: Cued fear extinction after peripheral injection, WT mice; assay type: in vivo, mouse
Protocol: (§1) Naïve WT (C57Bl/6NCrl) or Y4KO mice were used for fear conditioning experiments. Fear conditioning experiments were conducted during the light phase of the light/dark cycle in sound proof chambers (TSE Systems, Bad Homburg, Germany) by repetitive exposure of the mice to an auditory stimulus co‐terminating with a foot shock, as described in detail previously (Verma et al., 2012). Fear conditioning and context testing were performed in context A consisting of a transparent acrylic mouse conditioning chamber with a metal grid floor. The whole set‐up was enclosed by a sound attenuating chamber. Illumination was 80 lux, and chambers were cleaned with 70% ethanol. Fear recall as well as fear extinction and extinction recall was performed in a different context consisting of a dimly illuminated (10 lux) chamber with black, smooth walls and the floor cleaned with 1% acetic acid (context B).
(§2) On day 1 (context A), mice were subjected to a differential fear conditioning paradigm in which one auditory stimulus served as a CS because it was explicitly paired (CS+, 30 s white noise, 80 dB) with the US, whereas the second auditory stimulus was not paired (CS−, 30 s, 3.5 kHz, 80 dB). All animals received five CS− and five CS+ in an alternating order, starting with a CS+. The US co‐terminating with each CS+ consisted of a foot shock. […] On days 2 and 3, mice were tested for their context (context A for 15 min) and CS‐related fear memory (context B) respectively.
(§3) Fear conditioning was performed in WT (C57Bl6/NCrl) and Y4KO mice on day 1 (context A) as described in the previous paragraph. To avoid interference with postprandial released PP, mice were fasted overnight (16 h) before injection of the drug followed by fear extinction training. Water was freely available during the fasting period. Based on our previous results, a 16 h fasting period was required to reach our experimental aim (Verma et al., 2016). A control experiment was performed without food restriction (non‐fasting). [K^30(PEG2)]hPP2‐36 (1 mg·kg^−1) or saline was injected i.p. 60 min before behavioural testing, as indicated in the timeline of the respective experiments. For extinction experiments, mice were divided into two groups, receiving an i.p. injection of either the long‐acting Y4 receptor agonist [K^30(PEG2)]hPP2‐36 (1 mg·kg^−1) or saline in controls followed after 60 min by extinction training (extinction 1; 5 CS− and 25 CS+, context B). Mice were then tested on day 3 for extinction recall under drug‐free conditions by exposure to five CS+ (context B). To exclude any bias of group selection, another extinction session was performed on day 4 (extinction 2; 25 CS+, context B) followed by extinction recall on day 5 (five CS+; context B), both under drug‐free conditions. Spontaneous recovery (day 12) and renewal (day 13) were tested by exposing the mice to five CS+ in contexts B and A respectively.

Y4KO mice = assay: Cued fear extinction after peripheral injection, Y4KO mice; assay type: in vivo, mouse; settings: 1 mg/kg i.p. 60 min before extinction, fasted 16 h, vs saline, n = 10 per group
Protocol: as §1
On day 1 (context A), mice were subjected to a differential fear conditioning paradigm in which one auditory stimulus served as a CS because it was explicitly paired (CS+, 30 s white noise, 80 dB) with the US, whereas the second auditory stimulus was not paired (CS−, 30 s, 3.5 kHz, 80 dB). All animals received five CS− and five CS+ in an alternating order, starting with a CS+. The US co‐terminating with each CS+ consisted of a foot shock. […]

WT mice = assay: Fear acquisition and consolidation after peripheral injection; assay type: in vivo, mouse; settings: vs saline, n = 6 per group
Protocol: as §1, §2
as §3, with “Spontaneous recovery (day 12) and renewal (day 13) were tested by exposing the mice to five CS+ in contexts B and A respectively.” left out

[1] = test system: orexin neurons in the lateral hypothalamus; assay: c-Fos/orexin dual-labelling immunohistochemistry in lateral hypothalamus after fear extinction, WT mice; assay type: in vivo, mouse; settings: i.p. 60 min before fear extinction, fasted 16 h, brains removed 90 min after testing, n = 7 per group
Protocol: A separate group of WT and Y4KO mice were fasted overnight (16 h), injected i.p. with [K^30(PEG2)]hPP2‐36 or saline and subjected to extinction training 60 min later. Using a cryostat 40 μm coronal, free‐floating sections were cut for subsequent immunohistochemistry.
Immunohistochemical analysis was performed on free‐floating, PFA‐fixed, 40 μm thick coronal sections using indirect peroxidase labelling, as described previously (Tasan et al., 2011). The following antisera were used: polyclonal rabbit anti‐c‐Fos (1:20 000 PC38, Calbiochem) and polyclonal rabbit anti‐pan‐orexin (1:1000, Abcam ab6214, Lot:GR63996‐1). In brief, coronal sections were incubated free‐floating in 10% normal goat serum (Biomedica, Vienna, Austria) in Tris–HCl buffered saline (TBS; 50 mM, pH 7.2) for 90 min, followed by incubation with primary antiserum. […]
The number of c‐Fos positive cells was obtained bilaterally from six matched sections per animal showing the lateral hypothalamus, at a magnification of 400×, in multiple separate fields and mean values were calculated for each mouse. Results are presented as number of immunoreactivity positive cells per section and expressed as mean ± SEM. […]

hY1 = target: T1, hY1 (Homo sapiens, UniProt P25929); assay: Inositol phosphate accumulation, COS-7 cells expressing hY1 and chimeric Gi/q protein; assay type: cell-based; settings: agonist, inositol phosphate turnover, COS7 cells, 1 h stimulation, duplicate, at least two experiments
T1 construct: expressed in transfected cells
T1 sequence (P25929 1-384): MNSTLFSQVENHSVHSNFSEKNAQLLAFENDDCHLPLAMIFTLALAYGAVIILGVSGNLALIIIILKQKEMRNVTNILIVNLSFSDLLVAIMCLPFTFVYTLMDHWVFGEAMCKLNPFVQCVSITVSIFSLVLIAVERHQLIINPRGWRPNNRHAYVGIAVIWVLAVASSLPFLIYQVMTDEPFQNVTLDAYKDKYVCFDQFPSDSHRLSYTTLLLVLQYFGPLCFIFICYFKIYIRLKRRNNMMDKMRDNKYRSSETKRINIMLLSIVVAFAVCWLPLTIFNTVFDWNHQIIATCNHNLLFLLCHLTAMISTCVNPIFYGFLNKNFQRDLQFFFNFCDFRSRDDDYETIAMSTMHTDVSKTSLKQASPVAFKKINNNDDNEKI
Protocol: (§4) Agonist activity at Y receptors was assessed by measuring inositol phosphate accumulation in COS‐7 cells, as described previously (Hofmann et al., 2013). […] Stably transfected COS‐7‐hYR‐GαΔ6qi4myr cells were cultivated in DMEM with 4.5 g·L^−1 glucose and L‐glutamine supplemented with 10% (v/v) heat‐inactivated FCS, 100 units mL^−1 penicillin, 100 μg mL^−1 streptomycin, 1.5 mg mL^−1 G418‐sulfate and 146 μg mL^−1 hygromycin B in a humidified atmosphere at 37°C and 5% CO2. COS 7 cells were a gift from Prof. Dr. Torsten Schöneberg (Leipzig University). Stable cell lines were prepared as described in Mäde et al., 2014. Cells were grown in 48‐well plates (90 000 cells in 500 μL per well) for 24 h. […] Cells were lysed applying 0.1 M sodium hydroxide for 5 min at room temperature followed by neutralization with 0.2 M formic acid. […] Eluates were diluted with scintillation cocktail Ultima Gold (Perkin Elmer) and measured by a scintillation counter (Tri‐Carb 2910 TR from PerkinElmer). […] For each compound, global mean EC50 and pEC50 ± SEM (n ≥ 2) were calculated from the entire normalized concentration‐response curves by nonlinear regression using GraphPad Prism 5.0. […]
(§5) Activity at the human receptors, hY1, hY2, hY4 and hY5, was measured by accumulation of IP3, after channeling cAMP inhibition to phospholipase C activity, in COS7 cells.

hY2 = target: T2, hY2 (Homo sapiens, UniProt P49146); assay: Inositol phosphate accumulation, COS-7 cells expressing hY2 and chimeric Gi/q protein; assay type: cell-based; settings: agonist, inositol phosphate turnover, COS7 cells, 1 h stimulation, duplicate, at least two experiments
T2 construct: expressed in transfected cells
T2 sequence (P49146 1-381): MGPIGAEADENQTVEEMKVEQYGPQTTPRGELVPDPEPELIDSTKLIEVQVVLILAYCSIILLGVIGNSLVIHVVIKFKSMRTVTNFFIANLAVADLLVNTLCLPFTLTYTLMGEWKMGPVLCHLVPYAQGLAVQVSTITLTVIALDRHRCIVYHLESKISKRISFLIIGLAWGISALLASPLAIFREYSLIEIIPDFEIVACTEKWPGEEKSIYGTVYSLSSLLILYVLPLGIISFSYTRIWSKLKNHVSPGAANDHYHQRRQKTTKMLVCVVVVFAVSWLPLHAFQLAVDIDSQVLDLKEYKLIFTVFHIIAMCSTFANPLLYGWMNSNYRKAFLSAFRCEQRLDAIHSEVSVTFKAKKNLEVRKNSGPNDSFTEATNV
Protocol: as §4, §5

hY4 = target: T3, hY4 (Homo sapiens, UniProt P50391); assay: Inositol phosphate accumulation, COS-7 cells expressing hY4 and chimeric Gi/q protein; assay type: cell-based; settings: agonist, inositol phosphate turnover, COS7 cells; pEC50 ± SEM, n ≥ 2
T3 construct: expressed in transfected cells
T3 sequence (P50391 whole entry): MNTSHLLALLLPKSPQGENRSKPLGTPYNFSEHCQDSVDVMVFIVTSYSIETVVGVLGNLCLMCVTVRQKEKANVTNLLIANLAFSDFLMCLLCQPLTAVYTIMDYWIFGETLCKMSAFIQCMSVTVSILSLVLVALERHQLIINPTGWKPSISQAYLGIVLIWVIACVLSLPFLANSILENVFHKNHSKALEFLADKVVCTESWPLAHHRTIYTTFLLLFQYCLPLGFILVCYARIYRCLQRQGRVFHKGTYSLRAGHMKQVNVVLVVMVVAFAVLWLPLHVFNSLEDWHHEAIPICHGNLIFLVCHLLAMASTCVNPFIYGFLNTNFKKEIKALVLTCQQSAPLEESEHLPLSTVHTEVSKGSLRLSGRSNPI
Protocol: as §4, §5

hY5 = target: T4, hY5 (Homo sapiens, UniProt Q15761); assay: Inositol phosphate accumulation, COS-7 cells expressing hY5 and chimeric Gi/q protein; assay type: cell-based; settings: agonist, inositol phosphate turnover, COS7 cells; pEC50 ± SEM, n ≥ 2
T4 construct: expressed in transfected cells
T4 sequence (Q15761 1-445): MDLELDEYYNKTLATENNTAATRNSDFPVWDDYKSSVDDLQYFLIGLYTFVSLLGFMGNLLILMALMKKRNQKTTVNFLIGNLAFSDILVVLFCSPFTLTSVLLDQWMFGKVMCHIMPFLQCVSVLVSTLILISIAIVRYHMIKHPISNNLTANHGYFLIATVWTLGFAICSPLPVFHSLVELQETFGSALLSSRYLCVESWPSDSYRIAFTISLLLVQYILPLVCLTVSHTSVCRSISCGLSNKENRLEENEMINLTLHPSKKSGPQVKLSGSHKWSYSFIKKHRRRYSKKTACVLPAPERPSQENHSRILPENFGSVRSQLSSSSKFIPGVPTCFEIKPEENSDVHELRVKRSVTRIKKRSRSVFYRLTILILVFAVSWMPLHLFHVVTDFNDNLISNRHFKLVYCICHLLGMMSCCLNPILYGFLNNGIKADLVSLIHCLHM
Protocol: as §4, §5

[2] = i.p. immediately after fear acquisition

Substance | general motor activity (male WT mice) | cued fear extinction learning (freezing to CS) (WT (C57Bl/6NCrl) mice; 1 mg/kg i.p. 60 min before extinction training, fasted 16 h, male WT mice, vs saline) | freezing at CS13 during extinction (WT (C57Bl/6NCrl) mice; 1 mg/kg i.p. 60 min before extinction, fasted 16 h, WT mice, n = 10 per group) | freezing during extinction recall (WT (C57Bl/6NCrl) mice; 1 mg/kg i.p. before extinction 1, fasted 16 h, recall 24 h later drug-free and non-fasting, male WT mice, vs saline) | freezing during spontaneous recovery (WT (C57Bl/6NCrl) mice; 1 mg/kg i.p. before extinction training 1 (day 2), fasted 16 h, tested day 12, context B, male WT mice, n = 7 per group) | freezing during renewal (WT (C57Bl/6NCrl) mice; 1 mg/kg i.p. before extinction training 1 (day 2), fasted 16 h, tested day 13, context A, male WT mice, n = 7 per group) | cued fear extinction learning, non-fasted (WT (C57Bl/6NCrl) mice; i.p. 60 min before extinction training, non‐fasted WT mice, vs saline, n = 6 per group) | cued fear extinction (freezing to CS) (Y4KO mice) | context fear after injection before fear acquisition (WT mice; i.p. 60 min before fear acquisition, 16 h fasting, tested 24 h later) | CS-induced fear after injection before fear acquisition (WT mice; i.p. 60 min before fear acquisition, 16 h fasting, tested 48 h later) | CS-induced freezing after injection immediately after fear acquisition (consolidation) (WT mice; [2]) | context fear after injection immediately after fear acquisition (consolidation) (WT mice; [2]) | percentage of cFos-positive orexin neurons in the lateral hypothalamus [1] | EC50 (hY1) [nM] | EC50 (hY2) [nM] | hY4 pEC50 (hY4) | hY5 pEC50 (hY5)
[K^30(PEG2)]hPP2‐36 | did not influence general motor activity | significantly facilitated extinction learning | reduced freezing at CS13 | reduction of freezing during extinction recall | reduced freezing | reduced freezing | did not facilitate extinction learning | did not respond | did not alter | did not alter | did also not change | did also not change | specifically reduced | – | – | – | –
[K^30(PEG2)]hPP2‐36 (H-PLEPVYPGDNATPEQMAQYAADLRRYINK(MeO‑PEG 2 kDa)LTRPRY-NH2) [lysine 30 carries 2000 Da MeO-PEG] | – | – | – | – | – | – | – | – | – | – | – | – | – | > 1000 | > 1000 | 8.0 ± 0.2 | 6.4 ± 0.1
